The record followed here is article PMC10218234, “Design, Synthesis and Antitumor Activity of 1H-indazole-3-amine Derivatives” (International Journal of Molecular Sciences, 2023).

Like-named read-outs stand apart in the source and are kept apart here.

One series deals with PC-3 cells. In words: MTT anti-proliferative assay, PC-3. In kind it is cell-based. The note with it: Homo sapiens, PC-3, 48 h. As for the experimental part: (§1) The antiproliferative activity of the target indazole derivatives was evaluated against a panel of human cancer cell lines (human chronic myeloid leukemia cell lines K562; human lung cancer cell lines A549; human prostate cancer cell lines PC-3; human hepatoma cell lines HepG-2) in vitro, and human embryonic kidney cell lines HEK-293 were used to evaluate the cytotoxicity of a normal cell with high activity derivatives by MTT assay. Moreover, 5-fluorouracil (5-Fu), a broad-spectrum drug antitumor drug with therapeutic effects on various cancers, was used as a positive control.
(§2) Lung (A549), chronic myeloid leukemia (K562), prostate (PC3), and live (Hep-G2) cells were purchased from the Cell Bank of the Chinese Academy of Sciences (Kunming, China). A549, K562, and PC-3 cells were cultured in RPMI-1640 medium and the liver cells Hep-G2 were cultured in MEM medium. All mediums were supplemented with 10% FBS, 100 μg/mL penicillin and 100 μg/mL streptomycin. All cells were cultivated in a 5% CO2 incubator at 37 °C.
(§3) Exponentially growing cells were seeded at a density of 5000 cells per well in 96-well plates containing 100 μL of fresh growth medium. After allowing the cells to attach for 24 h, target compounds were added. After incubation for 48 h, viable cells were stained with MTT (0.5 mg/mL) for 4 h, and the produced formazan crystals were dissolved with 150 µL of dimethyl sulfoxide. Absorbance was measured at 490 nm using an automated microplate reader (Tecan, Infinite M200 Pro, Männedorf, Switzerland). The relative cell viability was calculated according to the following equation: Cell viability%=experimental OD value/control OD value×100%Cell inhibition%=control OD value−experimental OD value/control OD value×100%
(§4) Cell inhibition%=control OD value−experimental OD value/control OD value×100%
Background: Tetrazolium assays rely on reduction of a dye to a coloured formazan, in cell work by metabolically active cells.

Series [1] relates to K562 cells. In words: MTT anti-proliferative assay, K562. The note with it: Homo sapiens. In kind it is cell-based. As for the experimental part: as §1, §2
as §3, with “To investigate the anticancer activity of indazole derivatives, A549, K562, PC3, and Hep-G2 cells were treated with targets compounds respectively for 48 h in a range of concentrations (from 0.625 to 10 μM) and subjected to a proliferation assay using the MTT assay. Exponentially” for “Exponentially”
as §4

In series [2] the test system is K562 cells. In words: Cell cycle analysis (PI staining, flow cytometry). In kind it is cell-based, human. The following applies: K562, positive control, 24 h. As for the experimental part: To further explore the antitumor properties of 6o, the effect of 6o on cell cycle distribution was evaluated. PI staining was used to perform cell cycle analysis.
To analyze the cell cycle, a PI apoptosis detection kit (Solarbio, Wuhan, China) was utilized. After K562 cells were seeded in 6-well plates for 24 h, compound 6o (10, 12 and 14 μM) or positive control was added to the plates for another 24 h. Then, cells were washed three times with PBS, and fixed with 70% ethanol at 4°C for overnight. After fixed, cells were again washed with PBS and incubated at 37 °C with 100 μL RNase A for 30 min. After this, cells were incubated with 400 μL PI for 30 min at 4 °C. After staining, cells were subjected to Flow Cytometry using Cell Quest software (BD, SN: E34297502014) and the PI fluorescence was recorded in the FL2 channel. Data were analyzed using FlowJo V10.
Background: A flow cytometer gives signals particle by particle.

Another series relates to Hep-G2 cells. In words: MTT anti-proliferative assay, Hep-G2. The note with it: Homo sapiens. In kind it is cell-based. As for the experimental part: as §1, §2
as §3, with “To investigate the anticancer activity of indazole derivatives, A549, K562, PC3, and Hep-G2 cells were treated with targets compounds respectively for 48 h in a range of concentrations (from 0.625 to 10 μM) and subjected to a proliferation assay using the MTT assay. Exponentially” for “Exponentially”
as §4

Another series concerns HEK-293 cells. In words: MTT cytotoxicity to normal cells, HEK-293. In kind it is cell-based, human. The note with it: for Selectivity index (SI) for Hep-G2 cells: IC50 in HEK-293 divided by IC50 in Hep-G2. As for the experimental part:
as §1
as §3, with “To investigate the anticancer activity of indazole derivatives, A549, K562, PC3, and Hep-G2 cells were treated with targets compounds respectively for 48 h in a range of concentrations (from 0.625 to 10 μM) and subjected to a proliferation assay using the MTT assay. Exponentially” for “Exponentially”
as §4

The nature of series [3]: MTT cytotoxicity to normal cells, HEK-293. In kind it is cell-based, human. The note with it: human, HEK-293 cells (normal human embryonic kidney cells); normal cell HEK-293; MTT; read-out: IC50 ± SD, HEK-293. As for the experimental part:
as §1
as §3, with “To investigate the anticancer activity of indazole derivatives, A549, K562, PC3, and Hep-G2 cells were treated with targets compounds respectively for 48 h in a range of concentrations (from 0.625 to 10 μM) and subjected to a proliferation assay using the MTT assay. Exponentially” for “Exponentially”
as §4

The test system of the next series is A549 cells. In words: MTT anti-proliferative assay, A549. In kind it is cell-based. The note with it: Homo sapiens, read-out: IC50 ± SD, A549. As for the experimental part: as §1, §2
as §3, with “To investigate the anticancer activity of indazole derivatives, A549, K562, PC3, and Hep-G2 cells were treated with targets compounds respectively for 48 h in a range of concentrations (from 0.625 to 10 μM) and subjected to a proliferation assay using the MTT assay. Exponentially” for “Exponentially”
as §4

[4] abbreviates: Table 1, read-out: IC50 ± SD, PC-3.
[5] abbreviates: Table 2, read-out: IC50 ± SD, PC-3.
Setting [6] is: Table 1, 48 h, read-out: IC50 ± SD, K562.
[7] abbreviates: HepG2, 48 h, Table 1, 48 h, read-out: IC50 ± SD, Hep-G2.
[8] abbreviates: HepG2, 48 h, Table 2, 48 h, read-out: IC50 ± SD, Hep-G2.
[9] abbreviates: HepG2, Table 3, read-out: IC50 ± SD, Hep-G2.
The mark [10] stands for this setting: Table 2, 48 h, read-out: IC50 ± SD, K562.

As for `O=c1[nH]cc(F)c(=O)[nH]1` [5-Fu, 5-fluorouracil, reference compound], the IC50 (usually the midpoint of a concentration-inhibition curve) was 9.17 ± 3.93 µM in the series on PC-3 cells (setting [4]); 3.47 ± 0.21 µM in the series on PC-3 cells (setting [5]); 8.53 ± 2.27 µM with K562 cells [1] (setting [6]); 8.53 ± 2.27 µM in the series with K562 cells [1] (Table 3, read-out: IC50 ± SD, K562); 9.78 ± 1.58 µM in the series on Hep-G2 cells (setting [7]); 2.25 ± 0.46 µM with Hep-G2 cells (setting [8]). Moreover, the IC50 with Hep-G2 cells (setting [9]) was found to be 9.78 ± 1.58 µM; in the series on A549 cells (Table 1, 48 h) it was 8.37 ± 0.79 µM. Besides, the “increase of the proportion of the G0/G1 phase after drug treatment” value with K562 cells [2] was determined as 10%. Also, in the series with HEK-293 cells, the “Selectivity index (SI) for Hep-G2 cells” value worked out at 0.12. Besides, the “Selectivity index (SI) for K562 cells” value in the series on HEK-293 cells (IC50 in HEK-293 divided by IC50 in K562) was 0.14. In addition, in series [3], the half-maximal inhibitory concentration (IC50) at 48 h amounted to 1.16 ± 0.11 µM.
For the compound `O=C(CN1CCN(c2ccccc2)CC1)Nc1n[nH]c2ccc(-c3cc(F)cc(F)c3)cc12` [6k], the melting point (in general, the temperature, or range, at which the solid turns liquid) was in the range of 180 to 182 °C. Moreover, in the series with PC-3 cells (setting [5]), the IC50 turned out to be 4.25 ± 0.13 µM. The IC50 with K562 cells [1] (setting [10]) amounted to 11.2 ± 0.56 µM. In the series on Hep-G2 cells (setting [8]), the IC50 was 1.61 ± 0.28 µM. The IC50 in the series on A549 cells (Table 2, 48 h) amounted to 7.83 ± 1.06 µM.
For `O=C(CN1CCN(c2ccncc2)CC1)Nc1n[nH]c2ccc(-c3cc(F)cc(F)c3)cc12` [6l], in that order: 200 to 201 °C, 2.89 ± 0.16 µM, 14 ± 0.49 µM, 7.65 ± 3.34 µM and 12.9 ± 0.21 µM.
Regarding `COc1ccc(N2CCN(CC(=O)Nc3n[nH]c4ccc(-c5ccc(Cl)c(F)c5)cc34)CC2)cc1` [6n], the melting point lay within 174 to 176 °C. In addition, the IC50 in the series on PC-3 cells (setting [5]) is 34.8 ± 4.37 µM. The IC50 in the series on K562 cells [1] (setting [10]) was determined as 13.3 ± 1.4 µM. The IC50 with Hep-G2 cells (setting [8]) came out at 4.76 ± 0.63 µM. The IC50 with A549 cells (Table 2, 48 h) came out at 18.7 ± 3.1 µM.
The compound `O=C(CN1CCN(c2ccccc2Cl)CC1)Nc1n[nH]c2ccc(-c3ccc(Cl)c(F)c3)cc12` [6p] came in with a melting point of 163 to 165 °C. For the same compound, the IC50 in the series with PC-3 cells (setting [5]) came to 32.1 ± 2.26 µM. The IC50 in the series with K562 cells [1] (setting [10]) was over 50 µM. For the same compound, the IC50 with Hep-G2 cells (setting [8]) came to 2.38 ± 0.37 µM. In the series with A549 cells (Table 2, 48 h), the IC50 was 13.6 ± 0.53 µM.
Turning to `O=C(CN1CCN(c2ccc(F)cc2F)CC1)Nc1n[nH]c2ccc(-c3ccc(Cl)c(Cl)c3)cc12` [6q], the melting point lay in the range of 160 to 162 °C. Besides, the IC50 with PC-3 cells (setting [5]) stood at 10.7 ± 1.66 µM. Besides, in the series with K562 cells [1] (setting [10]), the IC50 was 5.61 ± 1.14 µM. The IC50 in the series on Hep-G2 cells (setting [8]) came out at 2.7 ± 0.47 µM. Further, in the series with A549 cells (Table 2, 48 h), the 50% inhibitory concentration (IC50) amounted to 12.8 ± 2.66 µM.
Compound `O=C(CN1CCN(c2ccc(Cl)cc2)CC1)Nc1n[nH]c2ccc(-c3ccc(Cl)c(Cl)c3)cc12` [6s] gave a melting point of 179 to 182 °C. Further, the IC50 in the series on PC-3 cells (setting [5]) was determined as 20.3 ± 4.71 µM. The IC50 in the series with K562 cells [1] (setting [10]) amounted to 10.8 ± 0.68 µM. Besides, the IC50 in the series with Hep-G2 cells (setting [8]) was determined as 2.92 ± 1.41 µM. For the same compound, the IC50 in the series on A549 cells (Table 2, 48 h) was determined as 20.4 ± 8.08 µM.
`N#Cc1ccc(N2CCN(CC(=O)Nc3n[nH]c4ccc(-c5ccc(Cl)c(Cl)c5)cc34)CC2)cc1` [6t] yielded a melting point of 194 to 197 °C. Further, the half-maximal inhibitory concentration (IC50) in the series on PC-3 cells (setting [5]) was 19 ± 0.58 µM. For the same compound, in the series with K562 cells [1] (setting [10]), the IC50 was found to be 11.1 ± 0.69 µM. The half-maximal inhibitory concentration (IC50) in the series on Hep-G2 cells (setting [8]) was 1.98 ± 0.35 µM. For the same compound, the IC50 in the series with A549 cells (Table 2, 48 h) was 40.9 ± 6.54 µM.
Taken in the same sequence, the figures for `O=C(CN1CCN(c2ccncc2)CC1)Nc1n[nH]c2ccc(-c3ccc(Cl)c(Cl)c3)cc12` [6u] were 195 to 197 °C, 27.7 ± 16.9 µM, over 50 µM, 20 ± 3.04 µM and 17.6 ± 4.11 µM.
`O=C(CSc1ccc(Br)cc1)Nc1n[nH]c2ccc(-c3cc(F)cc(F)c3)cc12` [compound 5k] displayed a melting point of 204 to 205 °C. Further, in the series on PC-3 cells (setting [4]), the IC50 amounted to 12.6 ± 2.17 µM. Also, the IC50 in the series with K562 cells [1] (setting [6]) came to 8.86 ± 0.66 µM. In addition, the IC50 in the series with Hep-G2 cells (setting [7]) was 3.32 ± 0.43 µM. Moreover, in the series on Hep-G2 cells (setting [9]), the 50% inhibitory concentration (IC50) was 3.32 ± 0.43 µM. Also, the “Selectivity index (SI) for Hep-G2 cells” value in the series with HEK-293 cells came to 3.67. Besides, the IC50 at 48 h in series [3] came out at 12.2 ± 2.85 µM. Besides, in the series with A549 cells (Table 1, 48 h), the IC50 worked out at 7.78 ± 0.18 µM.
